Here are results for five molecules from patent US8039464B2, “Muscarinic antagonists with PARP and SIR modulating activity as agents for inflammatory diseases” (ProteoSys AG, priority 2004, dated 2011).

For series [1], the target named is T1, PARP-1 (Homo sapiens, UniProt P09874).
T1 construct: purchased R&D Systems TA4669
Briefly: PARP inhibition assay (R&D Systems, Cat. No. TA4669). The conditions noted are these: for IC50: R&D assay, recombinant monomeric PARP-1, read-out: IC50 PARP-1 inhibition. The series is classed as biochemical. The text has this:
A PARP inhibition assay from R&D Systems was used (Cat. No. TA4669) according to instructions of the supplier.
Under cellular conditions PARP-1 poly-ADP-ribosylates a host of nuclear proteins, including topoisomerase 1, 14-3-3 g and PARP-1 itself. Thus under cellular conditions, the self-modification of PARP-1 and dimerization are regulating its activity, moreover there is a tight interplay with PARG (poly-ADP-ribosyl-glycohydroxylase).

Series [2] has as its system D3 embryonic stem (ES) cells, neurons. Briefly: Cell culture model for chemical ischemia and neuroprotection (calcium imaging). The series is classed as cell-based, mice. As for the experimental part: For all experiments, D3 embryonic stem (ES) cells derived from 129/sv mice [Okabe et al., 1996] were cultivated for 12 days, with passages on days 2, 4, 7 and 9 as described previously [Sommer et al., 2004]. Insult conditions: Cells (24-well plates) were pre-incubated with or without 20 nM EPO in fresh medium for 24 hours at 37° C. Cells were rinsed once with low K^+ solution (140 mM NaCl, 4.7 mM KCl, 1.2 mM KH2PO4, 2.5 mM CaCl2, 1.2 mM MgSO4, 11 mM glucose, 15 mM Hepes-NaOH, pH 7.35). Cells (either with or without EPO pre-incubation) were incubated for up to 45 min (37° C.) with either low K^+ solution or with glucose-free low K^+ solution supplemented with 1 mM KCN (chemical ischemia solution [Kume et al., 2002]). Vitality control to asses numbers of surviving neurons was performed by a brief stimulation with a low dose of glutamate (10 μM). Afterwards, cells were washed three times with ice cold phosphate buffered saline (PBS), and then proteins were harvested. Suspended cells were pelleted at 500×G, and lysed into 9M urea 4% CHAPS. The cell lysate was desalted with a NAP-10 column (Amersham Biosciences), preequilibrated with the same buffer, and protein content was determined.
Functional tests by calcium imaging were performed essentially as described [Sommer et al., 2004]. Briefly, cells were loaded with 2 μM of […] in DMEM for 45 min at 37° C. in the dark. Measurements of relative changes in [Ca^2+] were made on an inverted epifluorescence microscope (Olympus IX70 S1F2) with a Polychrom IV Monochromator (Xe-lamp, USHIO). Excitation wavelengths (λ1, λ2) and the emission wavelength were 340, 380 and 510 nm, respectively. Acquisition and analysis of data after appropriate stimulation were performed by using MetaFluor software (Universal Imaging Corporation). Image resolution was 168×129 pixels (binning 8×8, pixel size 6.8×6.8 μm). Only cells identified as neurons by morphological criteria and occasional immunostaining (not shown) and those whose calcium levels returned to the resting state after the first stimulation were taken into account. Controls included nominal zero calcium (negative) and 5 μM ionomycin (positive), 10 μM glutamate (positive) and depolarisation (55 mM K+) (positive). Pharmacological agents were applied by a multi-valve, single-output focal drug application device (ALA Scientific) with the perfusion system DAD-12. […] During each stimulation event 20 image pairs were acquired.

In another series the test system is 3T3 fibroblasts. Briefly: LPS challenge, cell survival by Trypan Blue. The series is classed as cell-based. The conditions noted are these: LPS 100 ng/ml for 60 min. As for the experimental part:
(§1) Cell pellets were further investigated by Western blot staining with anti Cox-2 and anti iNOS antibodies of 1D polyacrylamide gels.
(§2) Cell survival was assessed by Trypan Blue staining.

The next series concerns A 549 cells. Description: LPS challenge, cell survival by Trypan Blue. The conditions noted are these: LPS 100 ng/ml for 60 min. The series is classed as cell-based. As for the experimental part: as §1, §2
Series [3] has as its system neurally differentiated V56 embryonic stem cells. Description: LPS challenge, cell survival by Trypan Blue. The conditions noted are these: LPS 100 ng/ml for 60 min. It counts as cell-based. As to the method: as §1, §2
Series [4] concerns undifferentiated V56 embryonic stem cells. Briefly: LPS challenge, cell survival by Trypan Blue. The series is classed as cell-based. The conditions noted are these: LPS 100 ng/ml for 60 min. As for the experimental part:
as §1, §2

For a further series, the system named is iNOS and Cox-2. Description: Cox-2 and iNOS expression after LPS challenge (Western blot). The series is classed as cell-based. The conditions noted are these: LPS 100 ng/ml for 60 min. As for the experimental part: as §1, §2
The nature of series [5]: Blood-brain-barrier passage: HPLC of plasma and CSF. The conditions noted are these: rat, in vivo. The text has this: J. Gastroenterol. 66, 35ff.; Homon et al., 1987, Therapeutic Drug Monitoring 9, 236ff.).
Series [6] concerns the target T2, SIR-2 (Mus musculus, UniProt Q923E4).
T2 construct: Using a raw extract from murine embryonic stem cells; host or cells: murine embryonic stem cells (raw extract)
T2 sequence (Q923E4 2-737 limits assumed): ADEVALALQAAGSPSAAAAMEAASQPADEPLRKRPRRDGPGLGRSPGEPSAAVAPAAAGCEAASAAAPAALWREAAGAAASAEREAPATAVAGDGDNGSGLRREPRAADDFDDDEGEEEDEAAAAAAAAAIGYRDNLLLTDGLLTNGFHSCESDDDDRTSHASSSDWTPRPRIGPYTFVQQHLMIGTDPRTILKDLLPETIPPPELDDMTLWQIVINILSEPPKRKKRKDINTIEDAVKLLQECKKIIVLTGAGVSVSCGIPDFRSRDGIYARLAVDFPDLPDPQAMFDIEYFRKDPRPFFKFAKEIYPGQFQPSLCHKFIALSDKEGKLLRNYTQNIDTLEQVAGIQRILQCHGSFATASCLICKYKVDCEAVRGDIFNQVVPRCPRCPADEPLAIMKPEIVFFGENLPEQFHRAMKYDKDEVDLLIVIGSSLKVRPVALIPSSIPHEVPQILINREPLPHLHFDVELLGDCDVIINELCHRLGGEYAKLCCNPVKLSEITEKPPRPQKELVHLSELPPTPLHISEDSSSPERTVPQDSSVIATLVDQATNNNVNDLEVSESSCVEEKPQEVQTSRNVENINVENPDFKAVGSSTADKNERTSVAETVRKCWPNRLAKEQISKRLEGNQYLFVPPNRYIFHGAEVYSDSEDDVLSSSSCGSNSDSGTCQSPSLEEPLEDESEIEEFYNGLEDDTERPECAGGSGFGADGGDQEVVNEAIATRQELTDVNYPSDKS
Briefly: SIR2 activity assay (CycLex SIR2 Assay kit). It counts as biochemical, murine. The conditions noted are these: control; read-out: IC50 SIR-2 inhibition. The text has this:
For measurements of SIR2 activities, the quantitative test kit for NAD-dependent histone deacetylase activity CycLex® SIR2 Assay kit (Cat# CY-1151) was used according to instructions of manufacturer (CycLex Co., Ltd. 1063-103 Ohara, Tera-Sawaoka Ina, Nagano 396-0002 Japan). All substances tested in the SIR assay were cross-checked for their influence on the lysyl-endopeptidase. For this control an already deacetylated substrate peptide was used in order to measure directly lysyl-endopeptidase activity.
For measurements of SIR2 activities, the quantitative test kit for NAD-dependent histone deacetylase activity CycLex® SIR2 Assay kit (Cat# CY-1151) was used according to instructions of manufacturer (CycLex Co., Ltd. 1063-103 Ohara, Tera-Sawaoka Ina, Nagano 396-0002 Japan).

For series [7], the system named is PARP-1. Briefly: Affinity enrichment with irreversible pirenzepine affinity tag. It counts as binding, mice. The text has this: (§3) A reactive —SCN group is introduced which binds to lysines in or near the binding site of the compound. A biotinylated linker serves for enrichment of bound protein. The synthesis is described in detail co-pending US-application 60/588,354 and 60/620,323 which are herein incorporated by reference. In FIG. 1 a synthesis scheme is depcited. The final product, which was used as affinity reagent is thiocyanato 11-[2-(4-biocytinyl-piperazin-1-yl)-acetyl]-5,11-dihydro-benzo[e]pyrido[3,2-b][1,4]diazepin-6-one, (11).
(§4) The affinity reagent 11 was used to bind the target covalently from fractionations of crude cell extracts of D3 ES cells and other cell lines, subsequently the affinity purified material was analysed by 1D PAGE, immunostaining, and mass spectrometry.
The subsequent fractionation, isolation and further analysis was performed according to published standard procedures (Sommer et al. 2004). A commercial anti-PARP antibody was used for staining Western blots. Mass spectrometry for independent identification of pirenzepine-tagged proteins was performed as described elsewhere recently (Vogt et al., 2003, Cahill et al., 2003).
A surplus of affinity tag was removed by NAP10 gel filtration. The reaction mixture was bound to streptavidin agarose. Elution occurred with elution buffer (2% SDS, 62.5 mM Tris-pH 6.8) for 10 min at room temperature and 10 min at 95° C. […]

For series [8], the target named is T3, SIR-2 (Mus musculus, UniProt Q923E4).
T3 construct: endogenous in cells; host or cells: V56 / D3 embryonic stem cells, raw extract
T3 sequence (Q923E4 1-737): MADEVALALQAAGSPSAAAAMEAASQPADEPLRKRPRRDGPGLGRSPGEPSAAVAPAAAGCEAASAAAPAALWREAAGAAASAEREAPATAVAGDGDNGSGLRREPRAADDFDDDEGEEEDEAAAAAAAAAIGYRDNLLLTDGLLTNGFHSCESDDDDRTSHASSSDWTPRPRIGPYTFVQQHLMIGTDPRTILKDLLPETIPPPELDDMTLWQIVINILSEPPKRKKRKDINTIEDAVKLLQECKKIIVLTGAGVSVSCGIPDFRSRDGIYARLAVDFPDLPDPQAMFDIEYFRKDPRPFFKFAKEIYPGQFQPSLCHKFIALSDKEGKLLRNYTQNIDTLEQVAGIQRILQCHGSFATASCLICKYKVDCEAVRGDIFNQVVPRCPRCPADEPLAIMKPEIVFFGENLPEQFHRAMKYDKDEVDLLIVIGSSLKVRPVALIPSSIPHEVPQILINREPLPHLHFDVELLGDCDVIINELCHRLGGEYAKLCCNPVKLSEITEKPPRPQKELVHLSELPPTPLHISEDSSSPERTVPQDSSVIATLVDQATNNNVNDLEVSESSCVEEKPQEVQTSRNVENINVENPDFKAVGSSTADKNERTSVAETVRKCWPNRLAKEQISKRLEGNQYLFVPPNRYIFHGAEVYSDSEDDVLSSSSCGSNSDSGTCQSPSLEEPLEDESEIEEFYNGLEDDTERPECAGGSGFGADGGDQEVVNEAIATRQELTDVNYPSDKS
Described as above. It counts as binding.
Text: as §3, §4
For SIR-2 staining the following antibodies were used: primary Ab: A-SiR 2 (Upstate, biomol 07-131; Lot:22073); 1:5000 in 5% BSA/1×TBST; secondary Ab: A-Rabbit PE(A-0545) 1:1000 in 5% BSA/1×TBST: […]

Like-named read-outs stand apart in the source and are kept apart here.

T1 sequence (P09874 whole entry): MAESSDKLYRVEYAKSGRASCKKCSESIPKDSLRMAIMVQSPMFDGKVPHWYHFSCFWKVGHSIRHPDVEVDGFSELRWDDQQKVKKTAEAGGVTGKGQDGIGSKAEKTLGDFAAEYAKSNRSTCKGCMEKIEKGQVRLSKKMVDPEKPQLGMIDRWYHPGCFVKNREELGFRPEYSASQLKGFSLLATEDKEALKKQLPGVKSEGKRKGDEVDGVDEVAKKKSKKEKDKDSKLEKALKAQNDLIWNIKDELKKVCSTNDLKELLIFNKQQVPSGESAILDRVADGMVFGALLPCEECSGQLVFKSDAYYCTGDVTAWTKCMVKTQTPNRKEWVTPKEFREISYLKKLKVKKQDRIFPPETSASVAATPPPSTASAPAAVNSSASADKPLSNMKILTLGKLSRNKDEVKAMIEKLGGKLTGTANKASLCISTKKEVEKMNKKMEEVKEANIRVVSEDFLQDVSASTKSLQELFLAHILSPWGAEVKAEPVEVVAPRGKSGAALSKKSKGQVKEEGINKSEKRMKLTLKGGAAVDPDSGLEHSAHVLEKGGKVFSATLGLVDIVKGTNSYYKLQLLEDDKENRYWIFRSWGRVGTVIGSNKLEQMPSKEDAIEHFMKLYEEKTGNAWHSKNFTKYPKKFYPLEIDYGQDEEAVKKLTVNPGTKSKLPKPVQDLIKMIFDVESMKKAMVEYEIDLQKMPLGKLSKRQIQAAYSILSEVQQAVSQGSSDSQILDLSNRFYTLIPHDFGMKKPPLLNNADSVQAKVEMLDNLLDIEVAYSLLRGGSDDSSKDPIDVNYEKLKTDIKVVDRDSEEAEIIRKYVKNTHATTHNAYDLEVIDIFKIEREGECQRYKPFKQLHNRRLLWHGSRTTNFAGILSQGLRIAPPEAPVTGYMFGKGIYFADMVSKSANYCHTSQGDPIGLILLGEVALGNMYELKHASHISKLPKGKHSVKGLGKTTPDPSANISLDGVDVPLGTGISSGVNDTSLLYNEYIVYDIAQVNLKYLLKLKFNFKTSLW
PARP-1, sequence (P11103 215-1013 limits assumed): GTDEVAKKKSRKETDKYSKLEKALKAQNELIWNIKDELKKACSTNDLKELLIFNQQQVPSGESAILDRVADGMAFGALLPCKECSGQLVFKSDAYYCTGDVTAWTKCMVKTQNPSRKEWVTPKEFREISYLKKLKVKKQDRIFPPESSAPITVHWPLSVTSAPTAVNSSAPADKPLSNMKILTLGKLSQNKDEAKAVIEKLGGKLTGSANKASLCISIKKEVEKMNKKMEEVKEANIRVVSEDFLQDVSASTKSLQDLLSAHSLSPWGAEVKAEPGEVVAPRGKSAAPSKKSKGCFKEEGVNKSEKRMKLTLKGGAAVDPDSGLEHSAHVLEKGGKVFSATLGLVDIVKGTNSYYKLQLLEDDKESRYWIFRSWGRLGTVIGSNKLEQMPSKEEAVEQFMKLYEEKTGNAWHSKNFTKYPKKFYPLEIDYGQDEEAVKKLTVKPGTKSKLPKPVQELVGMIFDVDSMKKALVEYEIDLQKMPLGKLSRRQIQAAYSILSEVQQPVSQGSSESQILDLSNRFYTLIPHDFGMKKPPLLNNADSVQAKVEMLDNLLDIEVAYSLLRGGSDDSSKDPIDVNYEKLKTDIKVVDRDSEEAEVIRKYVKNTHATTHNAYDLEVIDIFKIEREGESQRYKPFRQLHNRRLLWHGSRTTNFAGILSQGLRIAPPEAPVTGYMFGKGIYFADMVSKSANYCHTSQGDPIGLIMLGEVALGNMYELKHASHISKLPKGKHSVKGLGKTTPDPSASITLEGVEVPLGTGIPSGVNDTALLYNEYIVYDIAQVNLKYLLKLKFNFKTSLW

Turning to `CN1CCN(CC(=O)N2c3ccccc3C(=O)Nc3cccnc32)CC1` [Pirenzepine, 5,11-dihydro-11[(4-methyl-1-piperazinyl)-acetyl]-6H-pyrido-[2,3-b]-[1,4]benzodiazepine-6-one, reference compound], the “PARP-1 inhibition (in words)” value on PARP-1 [1] is recorded as “rather weak PARP-1 inhibitor”. For the same molecule, the IC50 at PARP-1 [1] was found to be 200 µM. Besides, the “neuroprotective in vitro effect” value in [2] (1 μM, chemical ischemia) is “prevents neuronal death”. In addition, in series [2] (after chemical ischemia, 1 μM Pirenzepine (FIG. 2b)), the survival rate stood at 72.1±4.4%. Besides, the “neuroprotective effect under raft-disrupting conditions” value in [2] (β-methyl-cyclodextrin or filipin) was “does not occur”. The “protection from LPS challenge” value (in the series with 3T3 fibroblasts; with A 549 cells; in series [3]; in [4]) was “protect” each time. For the same molecule, the “expression of inducible inflammatory markers iNOS and Cox-2” value in the series on iNOS and Cox-2 is reported as “decreased expression”.

With `O=C1Nc2cccnc2N(C(=O)CN2CCNCC2)c2ccccc21` [dm-Pirenzepine, desmethyl-Pirenzepine], the “passage into the brain” value in series [5] is “virtually no passage”.

Consider `NC(=O)c1cccnc1` [nicotine amide, reference compound], for which the IC50 at SIR-2 [6] was roughly 55 µM.

As to `O=c1[nH]c2ccccc2c2ccccc12` [phenanthridone, reference compound], the 50% inhibitory concentration (IC50) on PARP-1 [1] was found to be 7 µM.

Take “thiocyanato 11-[2-(4-biocytinyl-piperazin-1-yl)-acetyl]-5,11-dihydro-benzo[e]pyrido[3,2-b][1,4]diazepin-6-one [pirenzepine-affinity tag]”: the “interaction with PARP-1” value in the series with PARP-1 [7] was “interacts”. In addition, the “binding to SIR-2” value on SIR-2 [8] was “irreversibly binds”; on SIR-2 [8] (listed as affinity tag) it was “interacts”.
